Reference: the NIST ThermoML archive (doi:10.1021/acs.jced.5b00242)

What was measured:
[1] = refractive index (Na D-line) (dimensionless); conditions: 101 kPa, Liquid, Standard Abbe refractometry
[2] = 101 kPa, Liquid; for viscosity: Stabinger viscometer; for mass density: Vibrating tube method

CCn1cc[n+](C)c1.N#C[C-](C#N)C#N [1-ethyl-3-methyl-1H-imidazolium tricyanomethanide]
Conditions | mass density, [2] [kg/m3] | refractive index, [1] | viscosity, [2] [mPa·s]
293.15 K | 1085 | 1.51454 | 16.62
298.15 K | 1081 | 1.51286 | 14.19
303.15 K | 1077 | 1.51114 | 12.18
308.15 K | 1074 | 1.50938 | 10.58
313.15 K | 1070 | 1.50765 | 9.02
318.15 K | 1067 | 1.50595 | 8.2
323.15 K | 1064 | 1.50419 | 7.31
328.15 K | 1060 | 1.50255 | 6.56
333.15 K | 1057 | 1.50087 | 5.72
338.15 K | 1054 | 1.49921 | 5.38
343.15 K | 1050 | 1.49757 | 4.91
348.15 K | 1047 | 1.49593 | 4.5
353.15 K | 1043 | 1.49429 | 3.98
